{
  "source": "patent US9751851B2",
  "about": "“Molecules and compositions that inhibit gram negative bacteria and their uses” (THE TRUSTEES OF PRINCETON UNIVERSITY, priority 2013, dated 2017)",
  "key": {"P. aeruginosa PA14": {"system": "P. aeruginosa PA14", "assay": "C. elegans fast killing infection assay", "format": "in vivo", "method": "Methods. C. elegans fast killing assays were conducted with 90 wild-type N2 worms for each condition (30 worms/replicate, 3 replicates performed). C. elegans were propagated on NGM plates prior to eggs being harvested from gravid adults using a standard bleaching protocol (30 mL 5% bleach, 15 mL 5 M KOH, 55 mL dH2O). Harvested eggs were placed on lawns of fresh E. coli HB101 and allowed to grow for 48 hr (to reach the L4 stage) at 20° C. prior to being moved to lawns of P. aeruginosa and placed at 25° C. on sorbitol, glucose, cholesterol plates. Nematodes were scored for survival every hr for 5 hr and again at 24 hr. The % living worms was calculated in triplicate for each time point. 50 μM mBTL or an equivalent volume of DMSO was added to plates and to the bacterial cultures during growth."}, "[1]": {"system": "wild-type P. aeruginosa PA14", "assay": "microbe, parasite or virus in culture", "format": "cell-based", "procedure,_shortened": "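PA14 cultures diluted 1:1000, grown aerobically 17 h at 37° C with shaking with compound at 100 μM (end point) or 200 nM–200 μM (titration). Pyocyanin in filtered cell-free fluid read at 695 nm; efficacy 0% at WT level, 100% at medium background; IC50 from variable-slope sigmoidal fit.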"}, "RhlR": {"target": "T1, RhlR (Pseudomonas aeruginosa, UniProt P54292)", "T1 construct": "expressed in transfected cells; host or cells: E. coli BL21-Gold (DE3) carrying pET23b-rhlR", "T1 sequence (P54292 whole entry)": "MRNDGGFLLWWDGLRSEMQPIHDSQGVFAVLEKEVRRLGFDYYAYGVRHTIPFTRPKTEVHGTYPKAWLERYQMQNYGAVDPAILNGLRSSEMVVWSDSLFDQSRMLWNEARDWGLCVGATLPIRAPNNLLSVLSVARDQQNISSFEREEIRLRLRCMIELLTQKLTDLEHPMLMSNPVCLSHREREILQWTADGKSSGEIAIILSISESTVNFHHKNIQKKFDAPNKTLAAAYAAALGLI", "assay": "RhlR-GFP assay (rhlA-gfp reporter in recombinant E. coli)", "format": "cell-based, P. aeruginosa", "method": "(§1) Methods. The LasR-GFP assays were performed in E. coli strain BL21 DE3 Gold (Agilent) carrying pET23b (Novagen) containing lasR (maintained with 100 μg/mL ampicillin) and carrying plasmid pEVS141 (31) containing the rsaL promoter driving expression of gfp (maintained with […] of kanamycin.) The RhlR-GFP assays were performed in E. coli strain BL21 DE3 Gold (Agilent) carrying pET23b (Novagen) containing rhlR (maintained with 100 μg/mL ampicillin) and carrying plasmid pEVS141 containing the rhlA promoter driving expression of gfp (maintained with 50 μg/mL of kanamycin.) These E. coli strains were grown overnight and subcultured into fresh medium with appropriate antibiotics at a 1:100 dilution and grown shaking for 8 hr at 37° C. for the LasR-GFP strain and 12 hr for the RhlR-GFP construct. 50 nM 3OC12-HSL or 20 μM C4-HSL was added to the LasR-GFP and RhlR-GFP preparations, respectively. Compounds were tested at 1 mM for antagonism and at 100 nM or 20 μM for agonism. These concentrations were chosen for agonism studies to match the concentrations of autoinducers used in the experiments. For antagonism studies, the EC95 concentration was used for each receptor. GFP was measured on an Envision plate reader.\n(§2) The LasR-GFP assays were performed in E. coli strain BL21 DE3 Gold (Agilent) carrying pET23b (Novagen) containing lasR (maintained with 100 μg/mL ampicillin) and carrying plasmid pEVS141 (31) containing the rsaL promoter driving expression of gfp (maintained with 50 μg/mL of kanamycin.) The RhlR-GFP assays were performed in E. coli strain BL21 DE3 Gold (Agilent) carrying pET23b (Novagen) containing rhlR (maintained with 100 μg/mL ampicillin) and carrying plasmid pEVS141 (31) containing the rhlA promoter driving expression of gfp (maintained with 50 μg/mL of kanamycin.) These E. coli strains were grown overnight and subcultured into fresh medium with appropriate antibiotics at a 1:100 dilution and grown shaking for 8 hr at 37° C. for the LasR-GFP strain and 12 hr for the RhlR-GFP construct. 50 nM 3OC12-HSL or 20 μM C4-HSL was added to the LasR-GFP and RhlR-GFP preparations, respectively. Compounds were tested at 1 mM for antagonism and at 100 nM or 20 μM for agonism. These concentrations were chosen for agonism studies to match the concentrations of autoinducers used in our experiments. For antagonism studies, we used the EC95 concentration for each receptor. GFP was measured on an Envision plate reader."}, "LasR": {"target": "T2, LasR (Pseudomonas aeruginosa, UniProt P25084)", "T2 construct": "expressed in transfected cells; host or cells: E. coli BL21-Gold (DE3) carrying pET23b-lasR", "T2 sequence (P25084 whole entry)": "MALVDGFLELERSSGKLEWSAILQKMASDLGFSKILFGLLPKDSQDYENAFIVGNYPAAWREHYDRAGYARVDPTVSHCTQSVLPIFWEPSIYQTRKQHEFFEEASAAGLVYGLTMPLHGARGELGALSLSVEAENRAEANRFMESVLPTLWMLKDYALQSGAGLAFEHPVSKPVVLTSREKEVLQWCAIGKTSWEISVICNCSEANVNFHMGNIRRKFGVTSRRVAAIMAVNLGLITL", "assay": "LasR-GFP assay (rsaL-gfp reporter in recombinant E. coli)", "format": "cell-based, P. aeruginosa", "method": "as §1, §2"}, "[2]": {"system": "A549 human lung cells infected with P. aeruginosa PA14", "assay": "A549 human lung cell infection (propidium iodide uptake)", "format": "cell-based", "conditions": "wild-type and lasR mutant strains; 100 μM compound", "method": "Methods. Human A549 cells were grown in CellStar tissue culture flasks. Prior to infection, the A549 cells were treated with trypsin-EDTA (CellGro), split, counted, and aliquotted into 96 well plates at 20,000 mammalian cells/well (cell counts were estimated using Trypan Blue (CellGro) exclusion). Cells were grown for 20 hr at 37° C. in DMEM (Invitrogen). Cells were washed 3× with warm PBS (Gibco). 100 μL of “master mix” was added to each well for each condition. Master mix contained 1 mL pre-warmed-PBS, 5 μL of 2 mg/mL propidium iodide (Bioprobes), 1 μL of a 100 mM inhibitor stock or DMSO, and 10 μL of OD600=2 P. aeruginosa PA14 grown in the presence of mBTL or DMSO. Infections were monitored using an EnVision plate reader every 2 hr with the RFP filter supplied by GE."}},
  "data": [
    {"substance": "meta-bromothiolactone [mBTL]", "values": [
      {"measurement": "C. elegans death", "setting": "P. aeruginosa PA14; lasR mutant P. aeruginosa PA14 treated with 50 μM mBTL", "result": 50, "unit": "%"},
      {"measurement": "C. elegans death", "setting": "P. aeruginosa PA14; wild-type P. aeruginosa PA14 treated with 50 μM mBTL", "result": 23, "unit": "%"},
      {"measurement": "IC50", "setting": "[1]; WT P. aeruginosa PA14, 17 hr growth, titration, read-out: IC50 for inhibition of pyocyanin production", "result": 8, "unit": "µM"},
      {"measurement": "inhibition of pyocyanin production (in words)", "setting": "[1]; wild-type P. aeruginosa PA14, end point assays at 100 μM", "result": "potent inhibition of pyocyanin"},
      {"measurement": "inhibition of RhlR activation of rhlA-gfp (antagonism)", "setting": "RhlR; mBTL at 1 mM, C4-HSL at EC95 (20 μM)", "result": 43, "unit": "%"},
      {"measurement": "RhlR partial agonism (gfp expression, cognate autoinducer = 100%)", "setting": "RhlR; no autoinducer, compound at 20 μM", "result": 80, "unit": "%"},
      {"measurement": "inhibition of LasR activation of rsaL-gfp (antagonism)", "setting": "LasR; mBTL at 1 mM, 3OC12-HSL at EC95", "result": 22, "unit": "%"},
      {"measurement": "LasR partial agonism (gfp expression, cognate autoinducer = 100%)", "setting": "LasR; no autoinducer, compound at 100 nM", "result": 72, "unit": "%"},
      {"measurement": "killing of A549 cells by P. aeruginosa", "setting": "[2]", "result": "reduces killing"}
    ]}
  ]
}
